# “Also recorded” adds a separate entry of the source. Read-outs that look alike come from different tables or passages of the source.
# What was measured:
# [1] = tested on: Acanthophis antarcticus venom PLA2; experiment: venom sPLA2 inhibition IC50, varespladib and CroFab alone and together; assay type: biochemical
# Experimental: (§1) Background. Phospholipase A2 (PLA2) catalyzes the hydrolysis of phospholipids at the sn-2 position yielding a free fatty acid and a lysophospholipid. The release of arachidonic acid from membrane phospholipids by PLA is believed to be a key step in the control of eicosanoid production within the cell. The Bee Venom PLA2 Control was a 100 μg/ml solution of bee venom PLA2 is supplied as a positive control in the kit (Abcam kit catalog number ab133089). Substrate for MP was DQ Gelatin and assay run per EnzChek gelatinase assay manufacturers instructions. Venom MP activity was not optimized in initial experiments, but reaction rates were during experiments performed by an independently contracted laboratory. SP assay was performed using Nα-Benzoyl-L-arginine-7-amido-4-methylcoumarin hydrochloride. These kits were stored as specified if stored at −20° C. Unless otherwise specified, in the case of my experiments, only crude, unfractionated lyophilized venom purchased from Sigma or the Miami Serpentarium were used. Plate Setup: Manufacturers guidelines (paraphrased herein) were followed unless otherwise specified. Data Analysis: xcel per manufacturers recommendations. MP and SP assays were prepared and plated in the same manner as PLA2 assays except substrates and fluorophores were different. PBS was the buffer in the case of MP and SP assays and absorbance measured at 495 nm. Substrate for MP was DQ Gelatin and assay run per EnzChek gelatinase assay manufacturers instructions except that experiments were run, unconventionally at 37 C to estimate human body temperature and initial experiments for PLA2, MP activity and SP activity were not optimized for screening (e.g. extremely high doses of venom were used—10 mg/mL stock in all cases since the quality of the venom was unknown with final concentration of 0.444 mg/mL in the test wells). SP assay was performed using Na-Benzoyl-L-arginine-7-amido-4-methylcoumarin hydrochloride (Sigma). Specifics of contract laboratory technique vary from the present inventor's initial experiments in terms of venom and substrate optimization, plate size (384 instead of 96), volume and temperature and other factors including different operators such as those described immediately below, performed following the first pilot experiments and subsequently extended by a contract laboratory.
# (§2) Small molecule screening and dose-response experiments took place in the Yale Center for Molecular Discovery. Instrumentation used when indicated included Tecan EVO (2), Tecan Aquarius, Matrix PlateMatePlus (2), Matrix PlateMate2×2 liquid transfer robots and Titertek and Thermo Multidrop liquid dispensers (7). PerkinElmer EnVision (3) and Tecan infinite M1000 (2) plate readers sensitively measure absorbance, fluorescence, fluorescence polarization and luminescence in 96- and 384-well plate formats. A GE InCell Analyzer 2200 imaging system acquires multicolor fluorescent and transmitted light images from plates. Piloting collections used in the first phases of screening were selected by the inventor or from libraries of known compounds and natural products available at the time of experiments on selected venoms including: NCC, GenPlus, Pharmakon, Bioactive lipids, Protease Inhibitors, Procured Drugs and FDA Approved Drugs libraries. The GenPlus (the NINDS Custom Collection) from MicroSource Discovery Systems contains 960 compounds. This unique selection of known bioactive compounds permits the simultaneous evaluation of hundreds of marketed drugs and biochemical standards. The Pharmakon 1600 collection (MicroSource) includes known drugs used globally or studied in clinical trials.
# (§3) Each assay was characterized in similar fashion, using methodology well-established in the Center. Assays are typically performed in 384-well microtiter plates.
# [2] = tested on: Agkistrodon contortrix venom PLA2; experiment: as above; assay type: biochemical
# Experimental: as §1, §2, §3
# [3] = tested on: Agkistrodon piscivorus venom PLA2; experiment: as above; assay type: biochemical
# Experimental: as §1, §2, §3
# [4] = tested on: Crotalus adamanteus venom PLA2; experiment: as above; assay type: biochemical
# Experimental: as §1, §2, §3
# [5] = tested on: Crotalus scutulatus scutulatus venom PLA2; experiment: as above; assay type: biochemical
# Experimental: as §1, §2, §3
# [6] = tested on: Crotalus otrox venom PLA2; experiment: as above; assay type: biochemical, Crotalus atrox
# Experimental: Background. Phospholipase A2 (PLA2) catalyzes the hydrolysis of phospholipids at the sn-2 position yielding a free fatty acid and a lysophospholipid. The release of arachidonic acid from membrane phospholipids by PLA is believed to be a key step in the control of eicosanoid production within the cell. The Bee Venom PLA2 Control was a 100 μg/ml solution of bee venom PLA2 is supplied as a positive control in the kit (Abcam kit catalog number ab133089). Substrate for MP was DQ Gelatin and assay run per EnzChek gelatinase assay manufacturers instructions. Venom MP activity was not optimized in initial experiments, but reaction rates were during experiments performed by an independently contracted laboratory. SP assay was performed using Nα-Benzoyl-L-arginine-7-amido-4-methylcoumarin hydrochloride. These kits were stored as specified if stored at −20° C. Unless otherwise specified, in the case of my experiments, only crude, unfractionated lyophilized venom purchased from Sigma or the Miami Serpentarium were used. […] PBS was the buffer in the case of MP and SP assays and absorbance measured at 495 nm. […]
# (§4) Small molecule screening and dose-response experiments took place in the Yale Center for Molecular Discovery. […] PerkinElmer EnVision (3) and Tecan infinite M1000 (2) plate readers sensitively measure absorbance, fluorescence, fluorescence polarization and luminescence in 96- and 384-well plate formats. […]
# snake venom PLA2 [7] = experiment: time course of PLA2 activity with excess venom (FIG. 1); assay type: biochemical; conditions: inhibitor 100 uM; venom 0.444 mg/mL final; 37 C
# Excerpt: Plate Setup: Manufacturers guidelines (paraphrased herein) were followed unless otherwise specified. Data Analysis: xcel per manufacturers recommendations. […] Substrate for MP was DQ Gelatin and assay run per EnzChek gelatinase assay manufacturers instructions except that experiments were run, unconventionally at 37 C to estimate human body temperature and initial experiments for PLA2, MP activity and SP activity were not optimized for screening (e.g. extremely high doses of venom were used—10 mg/mL stock in all cases since the quality of the venom was unknown with final concentration of 0.444 mg/mL in the test wells).
# (§8) Screening was carried out for inhibitors of venom sPLA2, MP and SPs. Stock solutions of venom at 10 mg/mL were used without typical dilution for assaying various inhibitors of sPLA2, MP and SPs. The final venom concentration in the assays was very high at 0.444 mg/mL.
# [8] = tested on: snake venom metalloproteinase; experiment: time course of metalloproteinase activity with excess venom (FIG. 2A); assay type: biochemical; conditions: inhibitors 100 uM; venom 0.444 mg/mL
# Experimental: Substrate for MP was DQ Gelatin and assay run per EnzChek gelatinase assay manufacturers instructions. Venom MP activity was not optimized in initial experiments, but reaction rates were during experiments performed by an independently contracted laboratory. SP assay was performed using Nα-Benzoyl-L-arginine-7-amido-4-methylcoumarin hydrochloride. […] Unless otherwise specified, in the case of my experiments, only crude, unfractionated lyophilized venom purchased from Sigma or the Miami Serpentarium were used. Plate Setup: Manufacturers guidelines (paraphrased herein) were followed unless otherwise specified. Data Analysis: xcel per manufacturers recommendations. MP and SP assays were prepared and plated in the same manner as PLA2 assays except substrates and fluorophores were different. PBS was the buffer in the case of MP and SP assays and absorbance measured at 495 nm. Substrate for MP was DQ Gelatin and assay run per EnzChek gelatinase assay manufacturers instructions except that experiments were run, unconventionally at 37 C to estimate human body temperature and initial experiments for PLA2, MP activity and SP activity were not optimized for screening (e.g. extremely high doses of venom were used—10 mg/mL stock in all cases since the quality of the venom was unknown with final concentration of 0.444 mg/mL in the test wells). SP assay was performed using Na-Benzoyl-L-arginine-7-amido-4-methylcoumarin hydrochloride (Sigma). Specifics of contract laboratory technique vary from the present inventor's initial experiments in terms of venom and substrate optimization, plate size (384 instead of 96), volume and temperature and other factors including different operators such as those described immediately below, performed following the first pilot experiments and subsequently extended by a contract laboratory.
# as §8
# Daboia russelli venom MP = experiment: metalloproteinase activity over time, Daboia russelli venom (FIG. 2B); assay type: biochemical; conditions: 100 uM; venom 0.444 mg/mL
# Experimental: Substrate for MP was DQ Gelatin and assay run per EnzChek gelatinase assay manufacturers instructions. Venom MP activity was not optimized in initial experiments, but reaction rates were during experiments performed by an independently contracted laboratory. […] These kits were stored as specified if stored at −20° C. Unless otherwise specified, in the case of my experiments, only crude, unfractionated lyophilized venom purchased from Sigma or the Miami Serpentarium were used. Plate Setup: Manufacturers guidelines (paraphrased herein) were followed unless otherwise specified. Data Analysis: xcel per manufacturers recommendations. MP and SP assays were prepared and plated in the same manner as PLA2 assays except substrates and fluorophores were different. PBS was the buffer in the case of MP and SP assays and absorbance measured at 495 nm. Substrate for MP was DQ Gelatin and assay run per EnzChek gelatinase assay manufacturers instructions except that experiments were run, unconventionally at 37 C to estimate human body temperature and initial experiments for PLA2, MP activity and SP activity were not optimized for screening (e.g. extremely high doses of venom were used—10 mg/mL stock in all cases since the quality of the venom was unknown with final concentration of 0.444 mg/mL in the test wells). […]
# [9] = tested on: snake venom serine proteases; experiment: serine protease activity with excess venom (FIG. 3); assay type: biochemical; conditions: 100 um; venom 0.444 mg/mL; compared to marimastat and batimastat
# Experimental: Substrate for MP was DQ Gelatin and assay run per EnzChek gelatinase assay manufacturers instructions. Venom MP activity was not optimized in initial experiments, but reaction rates were during experiments performed by an independently contracted laboratory. SP assay was performed using Nα-Benzoyl-L-arginine-7-amido-4-methylcoumarin hydrochloride. […] Unless otherwise specified, in the case of my experiments, only crude, unfractionated lyophilized venom purchased from Sigma or the Miami Serpentarium were used. Plate Setup: Manufacturers guidelines (paraphrased herein) were followed unless otherwise specified. Data Analysis: xcel per manufacturers recommendations. MP and SP assays were prepared and plated in the same manner as PLA2 assays except substrates and fluorophores were different. PBS was the buffer in the case of MP and SP assays and absorbance measured at 495 nm. Substrate for MP was DQ Gelatin and assay run per EnzChek gelatinase assay manufacturers instructions except that experiments were run, unconventionally at 37 C to estimate human body temperature and initial experiments for PLA2, MP activity and SP activity were not optimized for screening (e.g. extremely high doses of venom were used—10 mg/mL stock in all cases since the quality of the venom was unknown with final concentration of 0.444 mg/mL in the test wells). […]
# snake venom PLA2 [10] = assay type: biochemical
# Experimental: Background. Phospholipase A2 (PLA2) catalyzes the hydrolysis of phospholipids at the sn-2 position yielding a free fatty acid and a lysophospholipid. The release of arachidonic acid from membrane phospholipids by PLA is believed to be a key step in the control of eicosanoid production within the cell. The Bee Venom PLA2 Control was a 100 μg/ml solution of bee venom PLA2 is supplied as a positive control in the kit (Abcam kit catalog number ab133089). Substrate for MP was DQ Gelatin and assay run per EnzChek gelatinase assay manufacturers instructions. Venom MP activity was not optimized in initial experiments, but reaction rates were during experiments performed by an independently contracted laboratory. SP assay was performed using Nα-Benzoyl-L-arginine-7-amido-4-methylcoumarin hydrochloride. These kits were stored as specified if stored at −20° C. Unless otherwise specified, in the case of my experiments, only crude, unfractionated lyophilized venom purchased from Sigma or the Miami Serpentarium were used. Plate Setup: Manufacturers guidelines (paraphrased herein) were followed unless otherwise specified. Data Analysis: xcel per manufacturers recommendations. MP and SP assays were prepared and plated in the same manner as PLA2 assays except substrates and fluorophores were different. PBS was the buffer in the case of MP and SP assays and absorbance measured at 495 nm. […]
# as §4
# bee venom PLA2 = bee venom PLA2 (Apis mellifera, UniProt P00630); assay type: biochemical
# M. fulvius venom [11] = experiment: protection of mice from M. fulvius venom (FIG. 6A-D); assay type: in vivo
# Experimental: (§5) Mice received SC injections of M. fulvius venom at ^˜4 times the expected LD50 (typically estimated to be 1.3 mg/kg SC) (0.1 mg M. fulvius venom/animal for approximate dose of ^˜4 mg/kg). Prior to venom injection animals received either total dose 0.1 mg varespladib exipient (sham treatment) by SC route for calculated concentration of 4 mg/kg varespladib ^˜10-15 minutes before venom administration. Surviving animals were euthanized by CO2 inhalation at the end of experiments and observations periods ranging from ^˜12 hours to as long as 30 hours (survival being designated at 24 hours). […] In mice: Varespladib 4-8 mg/kg subcutaneously or orally with methylvarespladib, taken ad libitum. In rats, varespladib or excipient was administered intravenously at 30 seconds or 5 minutes following subcutaneous administration of venom at 4 or 8 mg/kg. Blood sampling and assay for sPLA2 activity was performed with samples taken from a surgically implanted jugular venous catheter at precise intervals (baseline, 30 minutes, 1 hour and 4 hours).
# (§6) 6B Mice fed methylvarespladib or exipient ad libitum in biscuits had high-dose M. fulvius venom administered ^˜5 hours after introduction of the biscuits (N=2 each group). […] 6C Venom and varespladib (4 mg/kg) or venom and excipient were mixed just prior to administration and injected subcutaneously. At 5 hours (300 minutes, down-pointing arrow), surviving animals were retreated with ½ dose varespladib (2 mg/kg) or excipient. […] Mice either received venom and sham/excipient (N=7), methylvarespladib (N=3) or varespladib (N=7) ^˜30 seconds to 1.5 minute following venom administration. […] Confirmatory experiments and results of 6E-H were performed in rats by a contract laboratory to assess expand knowledge of varespladib's capacity to act in therapeutic mode and see if the effects of intravenous administration were similar to subcutaneous administration. 6E and 6F M. fulvius venom was administered subcutaneously (4 mg/kg or 8 mg/kg) and then excipient or varespladib 8 mg/kg was administered at 30 seconds or 5 minutes after envenomation.
# M. fulvius venom [12] = experiment: treatment of rats after M. fulvius venom (FIG. 6E-H); assay type: in vivo; conditions: varespladib IV
# Experimental: as §5, §6
# C. scutulatus venom = experiment: survival of mice coinjected with C. scutulatus venom (FIG. 7A); assay type: in vivo; conditions: coinjected SC with C. scutulatus venom, single dose; N=4
# D. russelli venom = experiment: survival of mice given Daboia russelli venom (FIG. 8); assay type: in vivo; conditions: varespladib 4 mg/kg SC 60 to 90 minutes before lethal dose of D. russelli venom; N=3
# Vipera berus venom = experiment: survival of mice given Vipera berus venom (FIG. 9); assay type: in vivo; conditions: for survival versus controls: N=7
# Excerpt: (§7) V. berus is the most widely distributed viper in the world, ranging across Europe and Eurasia and as far north as the Arctic circle. It elaborates both hemo- and neurotoxins dangerous especially to children, pets and large animals such as horses.
# [13] = varespladib alone, no venom; N=2
# Excerpt: as §7
# E. carinatus venom MP = experiment: HTS for inhibitors of E. carinatus venom MP; assay type: biochemical; conditions: compounds approximately 10 μM/well
# Experimental: as §1
# as §2, with “This unique selection of known bioactive compounds permits the simultaneous evaluation of hundreds of marketed drugs and biochemical standards. The Pharmakon 1600 collection (MicroSource) includes known drugs used globally or studied in clinical trials.” left out
# [14] = tested on: Oxyuranus scutellatus venom serine protease; experiment: inhibition of venom serine proteases in vitro (FIG. 14); assay type: biochemical; conditions: elapid Oxyuranus scutellatus
# Experimental: Substrate for MP was DQ Gelatin and assay run per EnzChek gelatinase assay manufacturers instructions. Venom MP activity was not optimized in initial experiments, but reaction rates were during experiments performed by an independently contracted laboratory. SP assay was performed using Nα-Benzoyl-L-arginine-7-amido-4-methylcoumarin hydrochloride. […] Unless otherwise specified, in the case of my experiments, only crude, unfractionated lyophilized venom purchased from Sigma or the Miami Serpentarium were used. Plate Setup: Manufacturers guidelines (paraphrased herein) were followed unless otherwise specified. […] MP and SP assays were prepared and plated in the same manner as PLA2 assays except substrates and fluorophores were different. PBS was the buffer in the case of MP and SP assays and absorbance measured at 495 nm. Substrate for MP was DQ Gelatin and assay run per EnzChek gelatinase assay manufacturers instructions except that experiments were run, unconventionally at 37 C to estimate human body temperature and initial experiments for PLA2, MP activity and SP activity were not optimized for screening (e.g. extremely high doses of venom were used—10 mg/mL stock in all cases since the quality of the venom was unknown with final concentration of 0.444 mg/mL in the test wells). SP assay was performed using Na-Benzoyl-L-arginine-7-amido-4-methylcoumarin hydrochloride (Sigma). […]
# [15] = molecular target: snake venom metalloproteinase; experiment: IC50 for MP inhibition on various venoms (Table 8, FIG. 20); assay type: biochemical; conditions: general statement; values only in figures
# [16] = varespladib alone, read-out: Varespladib (IC50 nM)
# [17] = varespladib and CroFab ® together, read-out: Varespladib IC50 (nM) With CroFab ®
# Chain of bee venom PLA2 (P00630 34-167 limits assumed): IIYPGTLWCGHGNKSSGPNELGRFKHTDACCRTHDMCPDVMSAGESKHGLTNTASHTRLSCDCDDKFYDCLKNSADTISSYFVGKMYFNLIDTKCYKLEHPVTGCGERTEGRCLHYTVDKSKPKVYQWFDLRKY
smiles,measurement,setting,value
CCc1c(C(=O)C(N)=O)c2c(OCC(=O)O)cccc2n1Cc1ccccc1 [Varespladib],IC50,[1]; [16],0.74 nM
same,IC50,[1]; [17],0.43 nM
same,IC50,[2]; [16],0.22 nM
same,IC50,[2]; [17],0.045 nM
same,IC50,[3]; [16],0.28 nM
same,IC50,[3]; [17],0.05 nM
same,IC50,[4]; [16],0.25 nM
same,IC50,[4]; [17],0.05 nM
same,IC50,[5]; [16],1.51 nM
same,IC50,[5]; [17],0.82 nM
same,IC50,[6]; [16],0.32 nM
same,IC50,[6]; [17],0.07 nM
same,inhibition of snake venom PLA2 activity (time course),snake venom PLA2 [7],inhibited PLA2 activity in all snake venoms tested
same,inhibition of metalloproteinase activity (time course),[8],showed inhibition of MP activity in several snake venoms
same,inhibition of Daboia russelli venom MP over time,Daboia russelli venom MP,comparable inhibition
same,inhibitory effects on snake venom serine proteases,[9],unexpected inhibitory effects
same,inhibition of snake venom PLA2 in vitro,snake venom PLA2 [10],inhibited snake venom PLA2; also recorded: inhibited the measured sPLA2 activity of several medically important snake venoms
same,IC50,"snake venom PLA2 [10]; read-out: IC50s specific for snake venoms, lowest value",≥ 0.05 nM
same,inhibition of bee venom PLA2,bee venom PLA2,not inhibited; also recorded: only a modest effect
same,mice that died within 8 hours,M. fulvius venom [11]; varespladib 4 mg/kg SC minutes before M. fulvius venom 4 mg/kg SC,0 of 5
same,mice survived to the endpoint of 24 hours,M. fulvius venom [11]; {},5/5
same,sPLA2 activity in blood samples,"M. fulvius venom [12]; high dose coral snake venom SC, baseline, 30 minutes, 1 hour, 4 hours",dramatic suppression of sPLA2 activity
same,gross hemolysis in serum samples,M. fulvius venom [12]; venom SC,no or minimally visible hemolysis
same,pulmonary hemorrhage at necropsy,M. fulvius venom [12]; venom SC,either no or minimal pulmonary hemorrhage
same,survival versus venom only controls,C. scutulatus venom,outlived controls
same,survival at 24 hours,D. russelli venom,all survived 24 hours
same,survival versus controls,D. russelli venom,outlived controls
same,animals that outlived controls,Vipera berus venom; Venom SC followed by Varespladib SC 8 mg/kg,4 of 5
same,survival versus controls,Vipera berus venom; lethal venom dose just prior to SC varespladib,outlived controls
same,animals surviving 24 hours,Vipera berus venom; varespladib IV 8 mg/kg lateral tail vein following venom,5 of 5
same,survival versus controls,Vipera berus venom; venom and varespladib injected simultaneously SC,outlived controls
same,signs of toxicity,[13],no signs of toxicity
N=C(N)c1ccc2cc(OC(=O)c3ccc(N=C(N)N)cc3)ccc2c1 [Nafamostat],% Effect on E. carinatus venom MP,E. carinatus venom MP,28%
same,activity against venom serine protease in vitro,[14],surprising activity
same,IC50s on various venoms,[15],micromolar range

# From patent US11000506B2, “Envenomation therapies and related pharmaceutical compositions, systems and kits” (OPHIREX, INC, priority 2014, dated 2021)
